Structures can show the parent of a compound that is named as a salt.
Columns and labels:
male rabbit = assay: penis erection experiment in conscious male rabbits; format: in vivo; conditions: for Length of rabbit penis: conscious rabbits, average of 3 rabbits
Method: (Bischoff E.; Schneider K, International Journal of Impotence Research, 2001, 13, 230 235)
The hydrochloride of 3,7-dihydropyrrolo[2,3-d]pyrimidin-4-one derivatives was dissolved into water, and injected to conscious-rabbits intravenously (i.v.) (0.1 mg-3 mg/kg). Erection was accessed by comparing the length of penis before and at 0, 30, 60, 90 and 120 minutes after intravenous administration of the above-mentioned agents.

man = conditions: cited from earlier work
[1] = target: phosphodiesterase 5 (PDE5) (Homo sapiens, UniProt O76074); assay: inhibition of phosphodiesterase 5 (SPA technique); format: biochemical
Method: The bioactivity inhibiting phosphodiesterase 5 (PDE5) of compounds of formula I was measured cross the reference of methods (Hidaka H, et al Biochim. Biochim. Biophys. Acta, 1976, 429, 485; Kim D-K, et al., Bioorg. Med. Chem. 2001, 9, 3013). The inhibiting activity of PDE5 was determined using SPA technique and the method of chemical fluorescence. The method was as follows: firstly, the reaction time curve and the enzyme concentration curve of PDE5 reaction system were determined by Microplate Scintillation & Luminescence Counter (TopCount Counter), by which the optimal reaction condition was determined. Under the optimized conditions, the inhibition experiments on PDE5 were carried out.

male rats = assay: effect of single administration on the coitus function of male rats; format: in vivo, rat; conditions: 24 mg/kg oral; for the latent period of straddle / the latent period of the coitus / times of straddle / times of the coitus: single administration, 20 min observation, average ± standard deviation
Method: After purchasing, the male rat and the estrogenized female rat were kept in the same cage for 2 days, and the male rat would acquire the sexual experiences. Then, the female rat was taken out of the cage, and the experiments began after the male rat stayed alone in a cage for 5 days. Each tested compound was orally administered in a dosage of 24 mg/kg, the positive group was administered with Sildenafil citrate (Viagra) in a dosage of 24 mg/kg, and the control group was administered with saline at the equal volume (0.1 ml/10 g). Fifty minutes after administration, the tested male rats were placed within a observation container (both the diameter and the height of the container were 24 cm), and the male rats adapted the new environment for 5 minutes. After that, two estrogenized female rats were placed into the container. The sexual behavior of the male rats in 20 minutes was observed under the non-interfering condition using Panasonic WVCP410/G monitor, the latent period of straddle, times of straddle, as well as the latent period of the coitus and times of the coitus. All the experiments were carried out at 21-24° C., and completed before 11:00 AM. The comparative results among the compounds of the invention, the blank and the positive control drug Sildenafil citrate were listed in Table 2.

mice = assay: acute toxicity in mice; format: in vivo; conditions: single dose
Method: Furthermore, none of any obvious sign of adverse acute toxicity is shown for the compounds of this invention tested in rat and dog, both intravenously (i.v.) and orally (p.o.) at up to 3 mg/Kg, has shown. For the situation of mice, no deaths occurred after doses of up to 100 mg/Kg i.v. The LD50 for a single dose of compound I-HCl in mice is 2000 mg/kg.

[2] = 0 min after i.v. administration (0.1 mg-3 mg/kg)
[3] = 30 min after i.v. administration (0.1 mg-3 mg/kg)
[4] = 60 min after i.v. administration (0.1 mg-3 mg/kg)
[5] = 90 min after i.v. administration (0.1 mg-3 mg/kg)
[6] = 120 min after i.v. administration (0.1 mg-3 mg/kg)

| SMILES | Length of rabbit penis (male rabbit; [2]) [mm] | Length of rabbit penis (male rabbit; [3]) [mm] | Length of rabbit penis (male rabbit; [4]) [mm] | Length of rabbit penis (male rabbit; [5]) [mm] | Length of rabbit penis (male rabbit; [6]) [mm] | the latent period of straddle (male rats) [min] | the latent period of the coitus (male rats) [min] | times of straddle (male rats) | times of the coitus (male rats) | also measured |
| --- | --- | --- | --- | --- | --- | --- | --- | --- | --- | --- |
| CCCn1cc(C)c2c(=O)[nH]c(-c3cc(S(=O)(=O)N4CCN(C)CC4)ccc3OCC)nc21.Cl [Compound 6-2HCl, 2-[2-ethoxyl-5-(4-methylpiperazinyl-1-sulfonyl)phenyl]-5-methyl-7-n-propyl-3,7-dihydropyrrolo[2,3-d]pyrimidin-4-one] | 0.0 | 5.3 | 2.7 | 1.7 | 0.0 |  |  |  |  |  |
| CCCc1nn(C)c2c(=O)[nH]c(-c3cc(S(=O)(=O)N4CCN(C)CC4)ccc3OCC)nc12 [sildenafil, reference compound] |  |  |  |  |  |  |  |  |  | effective rates in treating male sexual organs erectile dysfunction (man): 80%; inhibition at 0.01 µM ([1]; read-out: inhibiting rate on PDE5): 31.7% |
| CCCn1cc(C)c2c(=O)[nH]c(-c3cc(S(=O)(=O)N4CCN(Cc5ccccc5)CC4)ccc3OCC)nc21.Cl.Cl [Compound 19-2HCl, 2-[2-ethoxyl-5-(4-benzylpiperazinyl-1-sulfonyl)phenyl]-5-methyl-7-n-propyl-3,7-dihydropyrrolo[2,3-d]pyrimidin-4-one] | 1.7 | 4.0 | 4.3 | 4.0 | 0.0 |  |  |  |  |  |
| CCCc1nn(C)c2c(=O)[nH]c(-c3cc(S(=O)(=O)N4CCN(C)CC4)ccc3OCC)nc12 [Sildenafil citrate, reference compound] |  |  |  |  |  | 5.0 ± 4.74 | 8.2 ± 4.02 | 12.7 ± 7.18 | 8.2 ± 5.25 |  |
| CCCn1cc(C)c2c(=O)[nH]c(-c3cc(S(=O)(=O)N4CCN(C)CC4)ccc3OCC)nc21.Cl [Compound 6-HCl, 2-[2-ethoxyl-5-(4-methylpiperazinyl-1-sulfonyl)phenyl]-5-methyl-7-n-propyl-3,7-dihydropyrrolo[2,3-d]pyrimidin-4-one] |  |  |  |  |  | 6.4 ± 3.07 | 8.8 ± 5.85 | 8.0 ± 3.93 | 9.0 ± 8.50 | latent period of coitus compared with positive control group (male rats; versus Sildenafil citrate): remarkably shorter than that of the positive control group; indexes of sexual function of the rats (in words) (male rats; versus saline): obviously enhanced |
| CCCn1cc(C)c2c(=O)[nH]c(-c3cc(S(=O)(=O)N4CCN(C(=O)OCC)CC4)ccc3OCC)nc21.Cl.Cl [Compound 8-2HCl, 2-[2-ethoxyl-5-(4-ethoxylcarbonylpiperazinyl-1-sulfonyl)phenyl]-5-methyl-7-n-propyl-3,7-dihydropyrrolo[2,3-d]pyrimidin-4-one] | 2.7 | 1.7 | 1.3 | 0.7 | 0.0 |  |  |  |  |  |
| CCCn1cc(C)c2c(=O)[nH]c(-c3cc(S(=O)(=O)N4CCN(CC)CC4)ccc3OCC)nc21.Cl.Cl [Compound 1-2HCl, 2-[2-ethoxyl-5-(4-ethylpiperazinyl-1-sulfonyl)phenyl]-5-methyl-7-n-propyl-3,7-dihydropyrrolo[2,3-d]pyrimidin-4-one dihydrochloride] | 1.3 | 3.0 | 2.0 | 1.0 | 1.0 |  |  |  |  |  |
| CCCn1cc(C)c2c(=O)[nH]c(-c3cc(S(=O)(=O)N4CCN(CC)CC4)ccc3OCC)nc21.Cl [Compound 1-HCl, 2-[2-ethoxyl-5-(4-ethylpiperazinyl-1-sulfonyl)phenyl]-5-methyl-7-n-propyl-3,7-dihydropyrrolo[2,3-d]pyrimidin-4-one monohydrochloride] | 8.3 | 5.7 | 5.3 | 2.0 | 1.3 | 2.6 ± 1.13 | 7.1 ± 5.62 | 7.6 ± 2.70 | 13.1 ± 8.77 | LD50 (mice): 2000 mg/kg; inhibiting rate on PDE5 ([1]; concentration 10^−8 mol/L): 65.62%; potential in treatment of functional erectile dysfunction (in words) (male rabbit; rabbit penis erection, i.v.): quick onset and prolonged effectiveness; effect on sexual function compared with Sildenafil citrate (male rats; both groups): stronger than that of the Sildenafil citrate group; times of the coitus compared with positive control group (male rats; versus Sildenafil citrate, p<0.05): much more than that of the positive control group; indexes of sexual function of the rats (in words) (male rats; versus saline): obviously enhanced; latent period of coitus (in words) (male rats; versus saline): remarkably shortened; latent period of straddle (in words) (male rats; versus saline): remarkably shortened; times of the coitus (in words) (male rats; versus saline): obviously increased |

Source: US8461165B2, “2-Substituted phenyl-5,7-dihydrocarbyl-3,7-dihydropyrrolo[2,3-d] pyrimidin-4-one derivatives, the preparation and the pharmaceutical use thereof” (Yangtze River Pharmaceutical (Group) Co., Ltd, priority 2003, dated 2013)
